Experimental data: PMC6508677, “Identification of druggable small molecule antagonists of the Plasmodium falciparum hexose transporter PfHT and assessment of ligand access to the glucose permeation pathway via FLAG-mediated protein engineering” (PLoS ONE, 2019)
Values joined by “and” are separate entries in the source; they are usually repeats but may differ in a detail not shown here. Equal values may be shown once.

Assays:
hGLUT2 = molecular target: T1, hGLUT2 (Homo sapiens, UniProt P11168); test: 2-DG uptake by HEK293 cells overexpressing hGLUT2; type: cell-based; details: for remaining activity at 0.001 µM: 0.001 µM compound; for remaining activity at 1.25 µM: 1.25 µM compound; for remaining activity at 5 µM / inhibition at 5 µM: 5 μM compound; for remaining activity at 80 µM: 80 µM compound; for remaining activity at 160 µM: 160 µM compound; for IC50: IC50 for inhibition of 2-DG uptake
T1 construct: expressed in transfected cells; host or cells: HEK293 (HEK293-FLIP, native hGLUT1 knocked down by shRNA)
T1 sequence (P11168 1-524): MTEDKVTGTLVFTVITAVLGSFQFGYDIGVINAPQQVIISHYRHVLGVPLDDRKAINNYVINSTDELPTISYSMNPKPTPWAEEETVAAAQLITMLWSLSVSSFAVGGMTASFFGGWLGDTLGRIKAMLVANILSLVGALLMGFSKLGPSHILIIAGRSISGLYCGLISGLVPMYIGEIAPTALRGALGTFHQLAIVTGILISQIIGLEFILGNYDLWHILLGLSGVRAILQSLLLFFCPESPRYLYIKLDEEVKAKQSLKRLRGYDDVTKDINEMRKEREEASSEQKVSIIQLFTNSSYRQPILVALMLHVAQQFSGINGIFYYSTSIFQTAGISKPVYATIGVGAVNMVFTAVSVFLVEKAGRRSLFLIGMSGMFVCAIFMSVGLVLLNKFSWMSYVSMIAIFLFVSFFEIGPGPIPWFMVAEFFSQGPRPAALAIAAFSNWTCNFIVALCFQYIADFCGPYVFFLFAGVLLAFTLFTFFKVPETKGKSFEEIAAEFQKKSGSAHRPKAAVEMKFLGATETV
Description: (§1) Generation of HEK293 cells overexpressing PfHT and human GLUTs 1–4 were described elsewhere. Briefly, HEK293 cells were transfected with pcDNA3.1 FLII12Pglu-7006 (Addgene), containing the fluorescence resonance energy transfer (FRET) glucose sensor (HEK293-FLIP) and PfHT, human GLUT1 (hGLUT1), hGLUT2, hGLUT3, hGLUT4, hGLUT5 or hGLUT8 using Optifect (Life Technologies) according to manufacturer’s specifications. To increase retention of GLUT8 at the plasma membrane, the dileucine sorting signal E^7E^8XXXLL was modified to R^7R^8XXXLL as described in [17]. Stable transfectants were selected for G418 and hygromycin resistance to select for FRET sensor and hexose transporter, respectively. HEK293-FLIP cells were also used to generate cells stably transfected with FLAG-tagged PfHT (FTPfHT). FLAG tag ([…]) followed by a triple glycine linker and a tobacco etch virus (TEV) protease site (ENLYFQS) followed by a triple glycine linker was added to the N-terminus of PfHT via PCR [18] using Phusion Hot Start II High-Fidelity DNA Polymerase (Fisher Scientific). Single clones were selected by comparing their abilities to transport glucose as assayed via FRET and radiolabeled hexose uptake. In all cell lines, except for HEK293 cells overexpressing hGLUT1 and hGLUT5, native hGLUT1 was knocked down using shRNA as described elsewhere. Transcript levels of the individual GLUTs expressed in each cell line are as described in [13, 15] and in S1 Fig.
(§2) Glucose uptake by P. falciparum was performed essentially as described. P. falciparum strain 3D7 was cultured in 100 mm tissue culture dishes (Techno Plastic Products) in a 2% suspension of human erythrocytes and RPMI 1640 medium until reaching > 7.5% parasitemia. Cells were pelleted via centrifugation and resuspended in RPMI 1640 medium. To determine the uptake of radiolabeled glucose into the parasite, parasites were isolated from infected erythrocytes by permeablization with saponin (0.05 w/v), followed by centrifugation, aspiration of supernatant and washing of the pellet 3X with saline solution (135 mM NaCl, 2 mM KCl, 25 mM HEPES, 0.2 mM glucose and 1 mM MgCl2; pH 7.1) to remove cellular debris. WU-1 or DMSO vehicle were added to 100 μl parasites (resuspended in saline) 5 min prior to the addition of 100 μl [^14C]2-DOG (0.2- μCi/ml final concentration). 2-DG uptake was stopped after 2 min by layering the entire reaction over 300 μl of an oil mixture (5:4 mix of dibutyl phthalate / dinonyl phthalate) in Eppendorf tubes and centrifuged at 15,850 × g for 2 mins. The ratio of the estimated intracellular concentration of radiolabel relative to the extracellular concentration were calculated as described. Uptake of radiolabeled hexose into HEK293 cells was measured in glucose-free HBSS as described previously. Briefly, cells were plated at 400,000 cells/well overnight at 37°C in 24-well plates pre-treated with PEI. After 30-min incubation at 37°C in glucose-free HBSS in the presence of vehicle or increasing concentrations of compound, 2-DG uptake was measured in glucose-free HBSS for 4 min at 37°C. Cultures were washed in ice-cold 1X PBS and lysed in 0.1% Triton X-100 in 1X PBS. Radiolabeled hexose uptake was determined by liquid scintillation counting (Ultima Gold, Thermo Fisher) and normalized to total protein per well. Uptake data are plotted as percent uptake relative to vehicle-treated cells. Kinetic analyses were performed using the indicated concentrations of substrate and WU-1, with quenching of uptake after 1 min incubation. Incubation times had been previously determined as being in the linear range of time-dependent radiolabeled hexose uptake (2 min for 2-DG uptake into freed parasites; 2 and 4 min for D-Frc and 2-DG uptake HEK cell lines, respectively). Data were fit by least squares nonlinear regression analysis using GraphPad Prism 6.0 software.

hGLUT1 = molecular target: T2, hGLUT1 (Homo sapiens, UniProt P11166); test: 2-DG uptake by HEK293 cells overexpressing hGLUT1; type: cell-based; details: for IC50 for inhibition of 2-DG uptake: GLUT1 cell line; for inhibition at 5 µM: 5 μM compound
T2 construct: expressed in transfected cells; host or cells: HEK293 (HEK293-FLIP); native hGLUT1 not knocked down in this line
T2 sequence (P11166 1-492): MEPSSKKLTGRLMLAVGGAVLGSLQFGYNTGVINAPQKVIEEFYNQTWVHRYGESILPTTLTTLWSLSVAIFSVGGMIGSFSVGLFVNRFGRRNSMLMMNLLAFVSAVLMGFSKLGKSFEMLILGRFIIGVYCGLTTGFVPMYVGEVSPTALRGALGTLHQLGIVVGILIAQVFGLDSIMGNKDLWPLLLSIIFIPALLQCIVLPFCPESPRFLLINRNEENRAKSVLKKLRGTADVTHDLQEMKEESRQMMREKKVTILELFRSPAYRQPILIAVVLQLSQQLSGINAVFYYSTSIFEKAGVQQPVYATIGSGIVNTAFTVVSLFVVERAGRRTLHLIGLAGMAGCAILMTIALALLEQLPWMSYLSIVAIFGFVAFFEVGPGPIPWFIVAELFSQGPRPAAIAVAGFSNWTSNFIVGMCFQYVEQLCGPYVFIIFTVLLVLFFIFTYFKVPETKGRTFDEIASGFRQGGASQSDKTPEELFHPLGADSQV
Description: as §1, §2

[1] = HEK293, 4 min, GLUT2, read-out: 2-DG uptake (percent uptake relative to vehicle), AVE per experiment
[2] = HEK293, 4 min, GLUT2, 2.5 µM compound, read-out: 2-DG uptake (percent uptake relative to vehicle), AVE per experiment
[3] = HEK293, 4 min, GLUT2, read-out: % Inhibition of 2-DG uptake vs vehicle
[4] = GLUT2 cell line, mean/reported value
[5] = individual experiments, GLUT2, Expt 1-3
[6] = HEK293, 4 min, GLUT1, read-out: % Inhibition of 2-DG uptake vs vehicle

SMILES	remaining activity at 0.001 µM (hGLUT2; [1]) [%]	remaining activity at 1.25 µM (hGLUT2; [1]) [%]	remaining activity at 2.5 µM (hGLUT2; [2]) [%]	remaining activity at 5 µM (hGLUT2; [1]) [%]	inhibition at 5 µM (hGLUT2; [3]) [%]	remaining activity at 80 µM (hGLUT2; [1]) [%]	remaining activity at 160 µM (hGLUT2; [1]) [%]	IC50 (hGLUT2; [4]) [µM]	IC50 (hGLUT2; [5])	2-DG uptake (percent uptake relative to vehicle) (hGLUT1; GLUT1, 0.001 µM compound)	2-DG uptake (percent uptake relative to vehicle) (hGLUT1; GLUT1, 1.25 µM compound)	2-DG uptake (percent uptake relative to vehicle) (hGLUT1; GLUT1, 2.5 µM compound)	2-DG uptake (percent uptake relative to vehicle) (hGLUT1; GLUT1, 5 µM compound)	2-DG uptake (percent uptake relative to vehicle) (hGLUT1; GLUT1, 10 µM compound)	2-DG uptake (percent uptake relative to vehicle) (hGLUT1; GLUT1, 20 µM compound)	2-DG uptake (percent uptake relative to vehicle) (hGLUT1; GLUT1, 40 µM compound)	2-DG uptake (percent uptake relative to vehicle) (hGLUT1; GLUT1, 80 µM compound)	2-DG uptake (percent uptake relative to vehicle) (hGLUT1; GLUT1, 160 µM compound)	2-DG uptake (percent uptake relative to vehicle) (hGLUT1; GLUT1, 225 µM compound)	IC50 for inhibition of 2-DG uptake (hGLUT1)	other results
Cc1ccc(S(=O)(=O)CCNC(=O)c2c(-c3c(Cl)cccc3Cl)noc2C)cc1 [WU-1, 3-(2,6-dichlorophenyl)-5-methyl-N-[2-(4-methylbenzenesulfonyl)ethyl]-1,2-oxazole-4-carboxamide]	100	108	110	83	~10	73.8	54.5	> 50	52.4 µM	100	99.74	109.88	102.1	100.82	110.03	120.62	121.35	125.18	132.09	n.i.	IC50 for inhibition of 2-DG uptake, individual experiments (hGLUT2; GLUT2, Expt 1-3): ambiguous; inhibition at 5 µM (hGLUT1; [6]): -2.1%
COc1c(Br)cc([N+](=O)[O-])c(OC)c1C(=O)NC(=O)Nc1c(C)cccc1Cl [WU-2, 3-(3-bromo-2,6-dimethoxy-5-nitrobenzoyl)-1-(2-chloro-6-methylphenyl)urea]	100	102	83.6	74.5	10 to 12	35.2	42.1	15.9 ± 2.5	14.1 µM and 20.8 µM and 12.9 µM	100	114.79	107.57	107.75	114.4	108.02	132.21	130.08	118.85	129.55	n.i.	Maximum Inhibition (%) (hGLUT2; 2-DG uptake, GLUT2 cell line): 62.0%; remaining activity at 10 µM (hGLUT2; HEK293, 4 min, GLUT2, 10 µM compound, read-out: 2-DG uptake (percent uptake relative to vehicle), AVE per experiment): 62.8%; remaining activity at 20 µM (hGLUT2; HEK293, 4 min, GLUT2, 20 µM compound, read-out: 2-DG uptake (percent uptake relative to vehicle), AVE per experiment): 64%; remaining activity at 40 µM (hGLUT2; HEK293, 4 min, GLUT2, 40 µM compound, read-out: 2-DG uptake (percent uptake relative to vehicle), AVE per experiment): 39.5%; remaining activity at 225 µM (hGLUT2; HEK293, 4 min, GLUT2, 225 µM compound, read-out: 2-DG uptake (percent uptake relative to vehicle), AVE per experiment): 30.9%; inhibition at 5 µM (hGLUT1; [6]): -7.75%
COc1cc(/C=N/NC(=O)c2cc(-c3ccccc3)sc2N)cc(OC)c1OC [WU-3, 2-amino-5-phenyl-N'-[(E)-(3,4,5-trimethoxyphenyl)methylidene]thiophene-3-carbohydrazide]	–	–	–	–	–	–	–	–	–	–	–	–	–	–	–	–	–	–	–	–	inhibition at 10 µM (hGLUT1; HEK293, 4 min, GLUT1, 10 μM compound, read-out: % Inhibition of 2-DG uptake vs vehicle): ≥ 50%
COc1cc(/C=C2\COC/C(=C\c3cc(OC)c(OC)c(OC)c3)C2=O)cc(OC)c1OC [WU-5, (3E,5E)-3,5-bis[(3,4,5-trimethoxyphenyl)methylidene]oxan-4-one]	–	–	–	–	–	–	–	–	–	–	–	–	–	–	–	–	–	–	–	–	inhibition at 2.5 µM (hGLUT2; HEK293, 4 min, GLUT2, 2.5 µM compound, read-out: % Inhibition of 2-DG uptake vs vehicle): ~70%; inhibition at 2.5 µM (hGLUT1; HEK293, 4 min, GLUT1, 2.5 μM compound, read-out: % Inhibition of 2-DG uptake vs vehicle): 2.94%
